Reference: EP0823908B1, “PYRIDO[2,3-d]PYRIMIDINES FOR INHIBITING PROTEIN TYROSINE KINASE MEDIATED [sequence] PROLIFERATION” (Warner-Lambert Company LLC, priority 1995, dated 1996)

Experiments:
[1] = target: T1, mouse PDGF-β receptor tyrosine kinase (Mus musculus, UniProt P05622); test: PDGF receptor tyrosine kinase assay (32P incorporation into glutamate-tyrosine co-polymer); assay type: biochemical; settings: read-out: PDGFr-TK IC50
T1 construct: amplify a fragment of DNA that codes for the intracellular tyrosine kinase domain; made in house; host or cells: SF9 insect cells (baculovirus)
T1 sequence (P05622 599-961 limits assumed): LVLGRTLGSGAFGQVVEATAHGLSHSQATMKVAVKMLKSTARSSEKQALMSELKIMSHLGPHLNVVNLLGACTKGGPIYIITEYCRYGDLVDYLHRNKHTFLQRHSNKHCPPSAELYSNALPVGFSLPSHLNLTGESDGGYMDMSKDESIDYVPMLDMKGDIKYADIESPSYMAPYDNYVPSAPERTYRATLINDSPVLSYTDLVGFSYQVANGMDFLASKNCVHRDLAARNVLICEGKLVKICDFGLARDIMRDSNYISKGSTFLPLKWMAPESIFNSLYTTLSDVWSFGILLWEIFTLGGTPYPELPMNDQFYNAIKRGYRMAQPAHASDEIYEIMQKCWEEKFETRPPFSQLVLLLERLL
Method in brief: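 32P transfer from γ32P-ATP (50 µM ATP) to poly(Glu,Tyr) 4:1 was measured over 10 min at 25°C and counted after TCA precipitation onto filters, minus the no-enzyme background. Enzyme was baculovirus/SF9 lysate of the kinase domain, preincubated 10 min with inhibitor in Hepes pH 7.0, MnCl2, vanadate.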

[2] = system: PDGF receptor; test: PDGF receptor autophosphorylation in rat aorta smooth muscle cells; assay type: cell-based; settings: read-out: Inhibition of PDGF-Stimulated Receptor Auto Phosphorylation in Rat Aortic Smooth Muscle Cells (IC50); PDGF-BB 30 ng/mL for 5 minutes after 2 hours with compound
Description: Rat aorta smooth muscle cells (RASMC) were isolated from the thoracic aorta of rats and explanted according to the method of Ross, J. Cell. Biol., 30:172-186 (1971). Cells were grown in Dulbecco's modified Eagle's medium (DMEM, Gibco) containing 10% fetal calf serum (FBS, Hyclone, Logan, Utah), 1% glutamine (Gibco) and 1% penicillin/streptomycin (Gibco). Cells were identified as smooth muscle cells by their "hill and valley" growth pattern and by fluorescent staining with a monoclonal antibody specific for SMC ∝-actin (Sigma). RASMC were used between passages 5 and 20 for all experiments. Test compounds were prepared in dimethylsulfoxide (DMSO) in order to achieve consistency in the vehicle and to ensure compound solubility. Appropriate DMSO controls were simultaneously evaluated with the test compounds.
RASMC were grown to confluency in 100 mm dishes. Growth medium was removed and replaced with serum-free medium and cells were incubated at 37°C for an additional 24 hours. Test compounds were then added directly to the medium and cells incubated for an additional 2 hours. After 2 hours, PDGF-BB was added at a final concentration of 30 ng/mL for 5 minutes at 37°C to stimulated autophosphorylation of the PDGF receptor. Following growth factor treatment, the medium was removed, and cells were washed with cold phosphate-buffered saline and immediately lysed with 1 mL of lysis buffer (50 mM HEPES[pH 7.5], 150 mM NaCl, 10% glycerol, 1% Triton X-100, 1 mM EDTA, 1 mMEGTA, 50 mM NaF, 1 mM sodium orthovanadate, 30 mM p-nitrophenyl phosphate, 10 mM sodium pyrophosphate, 1 mM phenylmethyl sulfonyl fluoride, 10 µg/mL aprotinin, and 10 µg/mL leupeptin). Lysates were centrifuged at 10,000 × g for 10 minutes. […] Following the incubation, protein-A-sepharose beads were added for 2 hours with continuous mixing, and immune complexes bound to the beads washed four times with 1 mL lysis wash buffer. Immune complexes were solubilized in 30 µL of Laemmli sample buffer and electrophoresed in 4-20% SDS polyacrylamide gels. Following electrophoresis, separated proteins were transferred to nitrocellulose and immunoblotted with anti-phosphotyrosine antiserum. […] IC50 values were generated from the densitometric data.

[3] = system: transplanted tumors; test: Transplanted tumor assay; assay type: in vivo; settings: F1 hybrid mice; compound generally by infusion by tail tether
Description: F1 hybrid mice were used in the assay. The mice receive ascites fluid or dilutions of tumor brei on Day 0. A sample of the inocula is incubated in thioglycolate media as a check for gross contamination of the tumor material. After all test animals are inoculated with tumors, they are randomized for the assay. Control animals receive vehicle, while treated animals receive an invention compound dissolved in the vehicle, generally by infusion by tail tether. All animals are monitored daily for acute toxicity and other clinical signs. Survival is checked daily for the control group and treated group. The assay generally is continued for 60 days, at which time all surviving animals are euthanized.

[4] = target: T2, C-src kinase (Homo sapiens, UniProt P12931); test: C-src kinase assay (poly GluTyr substrate); assay type: biochemical; settings: read-out: C-src TK IC50
T2 construct: made in house; host or cells: baculovirus infected insect cells
T2 sequence (P12931 whole entry): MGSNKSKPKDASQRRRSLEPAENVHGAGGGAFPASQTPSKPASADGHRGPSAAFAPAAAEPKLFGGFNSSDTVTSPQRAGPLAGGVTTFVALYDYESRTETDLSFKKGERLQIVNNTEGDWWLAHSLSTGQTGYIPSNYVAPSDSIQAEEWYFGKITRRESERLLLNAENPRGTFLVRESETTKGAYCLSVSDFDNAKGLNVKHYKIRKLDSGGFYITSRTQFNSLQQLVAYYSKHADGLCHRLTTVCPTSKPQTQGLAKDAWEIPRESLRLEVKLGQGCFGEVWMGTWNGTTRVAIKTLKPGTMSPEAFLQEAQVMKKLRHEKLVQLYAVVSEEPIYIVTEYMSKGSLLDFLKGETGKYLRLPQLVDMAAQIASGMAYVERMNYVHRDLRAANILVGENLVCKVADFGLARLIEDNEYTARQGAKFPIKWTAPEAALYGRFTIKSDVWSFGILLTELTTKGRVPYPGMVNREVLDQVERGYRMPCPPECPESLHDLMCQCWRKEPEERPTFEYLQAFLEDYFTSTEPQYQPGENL

Compound: Cn1c(=O)c(-c2c(Cl)cccc2Cl)cc2cnc(Nc3ccccc3)nc21 [Example 54, 6-(2,6-Dichlorophenyl)-8-methyl-2-phenylamino-8H-pyrido[2,3-d]pyrimidin-7-one]
- IC50 [1]: 231 nM
- IC50 [2]: 16 nM
- life span of animals infected with transplanted tumors [3]: increased the life span
- IC50 [4]: 24 nM
